Where “and” joins values, the source holds several entries; their conditions need not be identical. Equal entries are not always repeated.
Key:
PHTX-09c s.c. xenograft [1] = assay: 5F9 vcMMAE and cisplatin in PHTX-09c s.c. xenografts (Study CPGC-11-EF05); conditions: reference vehicle
Experimental: (§4) The endpoints for each treatment group was either a) tumor volume reaches 10% body weight; or b) body weight loss of >20%. The projected tumor volume at the study initiation date was 200 mm^3.
Not greater than one day prior to dosing, all animals were weighed to the nearest gram and grouped. Dosing solutions were vortexed prior to each administration to ensure correct delivery of compound. Animals received approximately 0.1 ml doses administered I.V. using a 1 cc syringe, 27-30 gauge, ½-¾ inch in length.
(§5) Tumor volume measurements were obtained twice per week using Vernier calipers (0.01 mm). Tumor volume was calculated using the formula:
Efficacy was evaluated in terms of % tumor growth inhibition (TGI) and tumor growth delay (TGD); the difference in days for treated vs. control tumors to reach final study volume).
TGI was assessed on an arbitrary day (when the maximum tumor volume (“MTV” of the control treatment group reaches the maximum allowable tumor volume), using the following formula:
(§6) TGD was assessed by calculating T−C, where T=mean time (in days) for treatment group tumors to reach a predetermined size, and where C=mean time (in days) for the control group tumors to reach a predetermined size (e.g., 1,000 mm^3).
(§7) The predicted differences in the log tumor values (Yijk−Yi0k, which can be interpreted as log10 (fold change from day 0)) were taken from the above models to calculate mean AUC values for each treatment group. A dAUC value was then calculated as:
For synergy analyses, the observed differences in the log tumor values were used to calculate AUC values for each animal. […] The AUC for the control, or vehicle, group was calculated using the predicted values from the pairwise models described above. A measure of synergy was defined as follows:
where Ak and Bk are the k^th animal in the individual treatment groups and ABk is the k^th animal in combination treatment group. […] The standard error of the synergy score was calculated as the square root of the sum of squared standard errors across groups A, B, and AB. […]

[2] = test system: PHTX-11c primary human mCRC tumor xenograft; assay: 5F9 vcMMAE single agent efficacy in PHTX-11c; format: in vivo, SCID mice
[3] = test system: PHTX-249 Pa s.c. xenograft; assay: 5F9 vcMMAE and gemcitabine in PHTX-249 Pa s.c. xenografts (Study CPGC-13-EF08); format: in vivo, CB-17 SCID mice
Experimental: 264.4 ul stock Gemcitabine into 3135.6 ul NS.
(§1) Day D0 was the first day of treatment.
(§2) Tumor volume was calculated using the formula: […]
(§3) A negative dAUC is interpreted as an increase in AUC relative to the reference. It is important to evaluate not only the P value, but also the dAUC. Comparisons with significant P values, but small dAUC values, may not be of interest.

[4] = test system: PHTX-249 Pa s.c. xenograft; assay: 5F9 vcMMAE and gemcitabine in PHTX-249 Pa s.c. xenografts (Study CPGC-13-EF05); format: in vivo, CB-17 SCID mice; conditions: group A: MLN0264 7.5 mg/kg QW; reference vehicle
Experimental: as §1, §2, §3

[5] = test system: PHTX-21c primary human mCRC tumor xenograft; assay: 5F9 vcMMAE single agent efficacy in PHTX-21c; format: in vivo, SCID mice; conditions: for anti-tumor activity maintained post-dosing: last dose on day 22
HT29 (WT / vector) cells = assay: Direct cytotoxicity assay (WST), HT29 wild-type / vector cells; format: cell-based, human
Experimental: To measure each antibody's ability to bind, internalize and kill target expressing cells, cytotoxicity assays were performed. In this assay, cells were incubated with various concentrations of the unconjugated primary anti-GCC antibody and a fixed non-toxic concentration of DM1-conjugated anti-human Fc secondary antibody (indirect cytotoxicity) or with various concentrations of toxin conjugated anti-GCC mAb (direct cytotoxicity). Cell viability was measured by WST assay after 4 days incubation.
Auristatin (analog of dolastatin 10) and maytansine class toxins were evaluated as ADCs with anti-GCC mAb. These toxins are all inhibitors of microtubule polymerization, acting as anti-mitotics.
The 5F9-auristatin toxin conjugates were tested in direct cytotoxicity assays of a variety of cells which been transfected with GCC nucleic acid and selected for expression of GCC. […] As a negative control, antibody drug conjugates were also made with sc209 antibody, which is a human IgG1 monoclonal antibody raised against an unrelated target, with no reactivity to GCC.

293 GCC#2 tumors = assay: Efficacy study with auristatin conjugates in 293 GCC#2 tumors, q7d×4; format: in vivo, SCID mice; conditions: for T/C: treatment/control
Experimental: 293 GCC#2 tumor-bearing SCID mice were treated with 5F9 conjugates with vc MMAE, vcMMAF or mcMMAF at three doses in comparison with 209 conjugates of these toxins or with free toxins or vehicle control. Doses were administered iv on a q7d×4 schedule. Tumors were harvested at days 3, 7, 10, 13 and 17. […] Table 18 provides a summary of the results (TGI=tumor growth inhibition, T/C=treatment/control, TGD=tumor growth delay, CR/PR=complete response/partial response; p value=measure to judge statistical significance, NS=not significant).

293-GCC#2 tumors = assay: PK/PD study (phospho-histone H3) in 293-GCC#2 tumor bearing mice; format: in vivo
Source text: Phospho-histone H3 was detected by antibody (Upstate Biotechnology, now Millipore, Billerica, Mass.) staining of paraffin embedded sections of tumors.

PHTX-11c s.c. xenograft = assay: MLN0264 and CPT-11 in PHTX-11c s.c. xenografts (Study CPGC-12-EF01)
Source text: The objective of this study was to explore the combination activity in a model having moderate level of GCC antigen density yet resistance to the immunoconjugate alone.
as §4
Not greater than one day prior to dosing, all animals were weighed to the nearest gram and grouped. Dosing solutions were vortexed prior to each administration to ensure correct delivery of compound. Animals received approximately 0.1 ml doses administered I.V. using a 1 cc syringe, 25-30 gauge, ½-¾ inch in length.
Tumor volume measurements (0.01 mm) were obtained twice per week using Vernier calipers (0.01 mm). Tumor volume was calculated using the formula:
(§8) Efficacy was evaluated in terms of % tumor growth inhibition (TGI) and tumor growth delay (TGD). TGI was assessed on an arbitrary day (when the maximum tumor volume (MTV of the control treatment group reaches the maximum allowable tumor volume), using the following formula:
as §6
(§9) To compare pairs of treatment groups, the following mixed-effects linear regression model was fit to the data using the maximum likelihood method:
as §7
(§10) For synergy analyses, the observed differences in the log tumor values were used to calculate AUC values for each animal. […] The AUC for the control, or vehicle, group was calculated using the predicted values from the pairwise models described above. To address the question of whether the effects of the combination treatments were synergistic, additive, or sub-additive relative to the individual treatments, the following statistics were calculated:
where Ak and Bk are the k^th animal in the individual treatment groups and ABk is the k^th animal in combination treatment group. AUCctl is the model-predicted AUC for the control group and was treated as a constant with no variability. The standard error of the synergy score was calculated as the square root of the sum of squared standard errors across groups A, B, and AB. The degrees of freedom were estimated using the Welch-Satterthwaite equation. P values were calculated by dividing the synergy score by its standard error and tested against a t-distribution (two-tailed) with the above-calculated degrees of freedom.
The effect was classified into four different categories. It was considered synergistic if the synergy score was less than 0 and additive if the synergy score wasn't statistically different from 0. […] Interval analysis, if requested, involved a specified treatment group and time interval compared with another treatment group and time interval. For a given group, time interval, and animal, the tumor growth rate per day was estimated by

PHTX-09c s.c. xenograft [6] = assay: 5F9 vcMMAE and CPT-11 in PHTX-09C s.c. xenografts (Study CPGC-11-EF07); conditions: for Days to 1000 mm^3 / Mean tumor volume ± S.E.M (mm3) / T/C / TGI: PHTX-09c
Experimental: as §4
Not greater than one day prior to dosing, all animals were weighed to the nearest gram and grouped. Dosing solutions were vortexed prior to each administration to ensure correct delivery of compound. Animals received approximately 0.1 ml doses administered I.V. using a 1 cc syringe, 25-30 gauge, ½-¾ inch in length. Animals were dosed based on an average body weight of 20 grams.
as §5, §8, §6, §9
The −2 log likelihood of the full model was compared to one without any treatment terms (reduced model) and the difference in the values was tested using a Chi-squared test. The degrees of freedom of the test were calculated as the difference between the degrees of freedom of the full model and that of the reduced model. The predicted differences in the log tumor values (Yijk−Yi0k, which can be interpreted as log10 (fold change from day 0)) were taken from the above models to calculate mean AUC values for each treatment group. A dAUC value was then calculated as:
as §10
where Ak and Bk are the k^th animal in the individual treatment groups and ABk is the k^th animal in combination treatment group. AUCctl is the model-predicted AUC for the control group and was treated as a constant with no variability. […] The standard error of the synergy score was calculated as the square root of the sum of squared standard errors across groups A, B, and AB. The degrees of freedom were estimated using the Welch-Satterthwaite equation. P values were calculated by dividing the synergy score by its standard error and tested against a t-distribution (two-tailed) with the above-calculated degrees of freedom.

[7] = group A: MLN0264 7.5 mg/kg QW, reference vehicle
[8] = MLN0264 7.5 mg/kg QW i.v., W1-W3

5F9 vcMMAE: 5F9 mAb conjugated to MMAE using a vc (Val-Cit) linker; average drug loading about 3.6
dAUC (PHTX-09c s.c. xenograft [1]; group A: MLN0264 1.875 mg/kg IV QW x3): 17.8%
dAUC (PHTX-09c s.c. xenograft [1]; group B: MLN0264 3.75 mg/kg IV QW x3, 3.75 mg/kg): 28.4% and 44.8%
single agent sensitivity ([2]; 1.875-7.5 mg/kg I.V. QW×3 weeks): relatively resistant
T/C ([2]; dose 1.875-7.5 mg/kg, on BIW): 0.5 on
tumor regressions (animals) ([3]; PHTX-249 Pa (Studies CPGC-13-EF05/EF08), 5F9 vcMMAE 7.5 mg/kg, gemcitabine 15 mg/kg on days 1 and 3, alone or combined): no tumor regressions
dAUC [3, 7]: 28.9%
dAUC [4]: 26.4%
anti-tumor activity maintained post-dosing ([5]; 7.5 mg/kg): 7-8 weeks
anti-tumor activity maintained post-dosing ([5]; 10 mg/kg): > 15 weeks
single agent anti-tumor activity ([5]; 3.75-10 mg/kg I.V. QW×4): Moderate to strong in vivo anti-tumor activity
T/C ([5]; dose 3.75-10 mg/kg, QW, T/C=volume of tumor/control): 0.23
LD 50 (HT29 (WT / vector) cells; HT29, auristatin ADCs): 0.93 nM
LD 50 (HT29 (WT / vector) cells; HT 29 WT, auristatin ADCs): 84 nM
TGI (293 GCC#2 tumors; 75 μg/kg iv q7d×4): 54.5
T/C (293 GCC#2 tumors; 75 μg/kg iv q7d×4): 0.45
TGD (293 GCC#2 tumors; 75 μg/kg iv q7d×4, tumor growth delay): 4.4
TGI (293 GCC#2 tumors; 150 μg/kg iv q7d×4): 83.5
T/C (293 GCC#2 tumors; 150 μg/kg iv q7d×4): 0.17
TGI (293 GCC#2 tumors; 300 μg/kg iv q7d×4): 96.9
T/C (293 GCC#2 tumors; 300 μg/kg iv q7d×4): 0.03
Average % Tumor cells pH 3 positive (293-GCC#2 tumors; single iv dose 75 μg/kg, 1 hr): 4.525%
Average % Tumor cells pH 3 positive (293-GCC#2 tumors; single iv dose 75 μg/kg, 4 hr): 2.552%
Average % Tumor cells pH 3 positive (293-GCC#2 tumors; single iv dose 75 μg/kg, 8 hr): 4.244%
Average % Tumor cells pH 3 positive (293-GCC#2 tumors; single iv dose 75 μg/kg, 24 hr): 9.8199%
Average % Tumor cells pH 3 positive (293-GCC#2 tumors; single iv dose 75 μg/kg, 48 hr): 8.692%
Average % Tumor cells pH 3 positive (293-GCC#2 tumors; single iv dose 75 μg/kg, 96 hr): 8.628%
Average % Tumor cells pH 3 positive (293-GCC#2 tumors; single iv dose 150 μg/kg, 1 hr): 3.335%
Average % Tumor cells pH 3 positive (293-GCC#2 tumors; single iv dose 150 μg/kg, 4 hr): 2.785%
Average % Tumor cells pH 3 positive (293-GCC#2 tumors; single iv dose 150 μg/kg, 8 hr): 4.576%
Average % Tumor cells pH 3 positive (293-GCC#2 tumors; single iv dose 150 μg/kg, 24 hr): 13.79%
Average % Tumor cells pH 3 positive (293-GCC#2 tumors; single iv dose 150 μg/kg, 48 hr): 14.26%
Average % Tumor cells pH 3 positive (293-GCC#2 tumors; single iv dose 150 μg/kg, 96 hr): 14.68%
Days to 1000 mm^3 (PHTX-11c s.c. xenograft; [8]): 13.5 days
Mean tumor volume ± S.E.M (PHTX-11c s.c. xenograft; [8]): 1263.4 ± 115.8 mm3
T/C (PHTX-11c s.c. xenograft; [8]): 0.62
TGD (PHTX-11c s.c. xenograft; [8]): 4.7 days
TGI (PHTX-11c s.c. xenograft; [8]): 37.7%
single agent anti-tumor activity (PHTX-11c s.c. xenograft; PHTX-11c, 7.5 mg/kg): very low activity
dAUC (PHTX-11c s.c. xenograft; [7]): 22.6%
single agent activity (PHTX-09c s.c. xenograft [6]; PHTX-09c (FIGS. 8B and 8C)): strong
Days to 1000 mm^3 (PHTX-09c s.c. xenograft [6]; ML0264 1.875 mg/kg i.v. QW ×3): >23 days
Mean tumor volume ± S.E.M (mm3) (PHTX-09c s.c. xenograft [6]; ML0264 1.875 mg/kg i.v. QW ×3): 888.5 ± 126.2 mm3
T/C (PHTX-09c s.c. xenograft [6]; ML0264 1.875 mg/kg i.v. QW ×3): 0.82
TGI (PHTX-09c s.c. xenograft [6]; ML0264 1.875 mg/kg i.v. QW ×3): 18.1%
Days to 1000 mm^3 (PHTX-09c s.c. xenograft [6]; ML0264 3.75 mg/kg i.v. QW ×3): >23 days
Mean tumor volume ± S.E.M (mm3) (PHTX-09c s.c. xenograft [6]; ML0264 3.75 mg/kg i.v. QW ×3): 861.1 ± 155.9 mm3
T/C (PHTX-09c s.c. xenograft [6]; ML0264 3.75 mg/kg i.v. QW ×3): 0.79
TGI (PHTX-09c s.c. xenograft [6]; ML0264 3.75 mg/kg i.v. QW ×3): 20.6%
dAUC (PHTX-09c s.c. xenograft [6]; Treated group A (ML0264 1.875 mg/kg) vs reference V (vehicle), percent decrease in AUC): 16.1%
dAUC (PHTX-09c s.c. xenograft [6]; Treated group B (ML0264 3.75 mg/kg) vs reference V (vehicle)): 25.4%

Reference: US20140356383A1, “ADMINISTRATION OF AN ANTI-GCC ANTIBODY-DRUG CONJUGATE AND A DNA DAMAGING AGENT IN THE TREATMENT OF CANCER” (priority 2013, published 2014)
